Data on 6 molecules can be found in ChEMBL document CHEMBL5724914, “Linking interpersonal differences in gut microbiota composition and drug biotransformation activity” (2024).

The nature of series [1]: The drug is tested on Z-019 corresponding to rat gut metagenome with ENA study accession number: PRJEB37062 and ENA sample accession number: ERS12561818 for biotransformation under anaerobic condition. The drug concentrations were measured over 9 timepoints collected between 0 and 24 hours of incubation by liquid-chromatography-coupled mass spectrometry (LC–MS). Conditions: 2 µM.

Series [2] in a line: The drug is tested on Z-017 corresponding to mouse gut metagenome with ENA study accession number: PRJEB37062 and ENA sample accession number: ERS12561816 for biotransformation under anaerobic condition. The drug concentrations were measured over 9 timepoints collected between 0 and 24 hours of incubation by liquid-chromatography-coupled mass spectrometry (LC–MS). To be noted: 2 µM.

Series [3] can be described thus: The drug is tested on Z-007 corresponding to rat gut metagenome with ENA study accession number: PRJEB37062 and ENA sample accession number: ERS12561807 for biotransformation under anaerobic condition. The drug concentrations were measured over 9 timepoints collected between 0 and 24 hours of incubation by liquid-chromatography-coupled mass spectrometry (LC–MS). Conditions: 2 µM.

A short description of series [4]: The drug is tested on Z-003 corresponding to pig gut metagenome with ENA study accession number: PRJEB37062 and ENA sample accession number: ERS12561803 for biotransformation under anaerobic condition. The drug concentrations were measured over 9 timepoints collected between 0 and 24 hours of incubation by liquid-chromatography-coupled mass spectrometry (LC–MS). To be noted: 2 µM.

Series [5] in a line: The drug is tested on Z-002 corresponding to rabbit gut metagenome with ENA study accession number: PRJEB37062 and ENA sample accession number: ERS12561802 for biotransformation under anaerobic condition. The drug concentrations were measured over 9 timepoints collected between 0 and 24 hours of incubation by liquid-chromatography-coupled mass spectrometry (LC–MS). To be noted: 2 µM.

A short description of series [6]: The drug is tested on WLS-240 corresponding to human gut metagenome with ENA study accession number: PRJEB37062 and ENA sample accession number: ERS12561773 for biotransformation under anaerobic condition. The drug concentrations were measured over 9 timepoints collected between 0 and 24 hours of incubation by liquid-chromatography-coupled mass spectrometry (LC–MS). To be noted: 2 µM.

The nature of series [7]: The drug is tested on WLS-098 corresponding to human gut metagenome with ENA study accession number: PRJEB37062 and ENA sample accession number: ERS12561754 for biotransformation under anaerobic condition. The drug concentrations were measured over 9 timepoints collected between 0 and 24 hours of incubation by liquid-chromatography-coupled mass spectrometry (LC–MS). To be noted: 2 µM.

The nature of series [8]: The drug is tested on WLS-073 corresponding to human gut metagenome with ENA study accession number: PRJEB37062 and ENA sample accession number: ERS12561749 for biotransformation under anaerobic condition. The drug concentrations were measured over 9 timepoints collected between 0 and 24 hours of incubation by liquid-chromatography-coupled mass spectrometry (LC–MS). To be noted: 2 µM.

A short description of series [9]: The drug is tested on WLS-069 corresponding to human gut metagenome with ENA study accession number: PRJEB37062 and ENA sample accession number: ERS12561748 for biotransformation under anaerobic condition. The drug concentrations were measured over 9 timepoints collected between 0 and 24 hours of incubation by liquid-chromatography-coupled mass spectrometry (LC–MS). Conditions: 2 µM.

The conditions of series [10]: human gut metagenome, 24 h, 2 µM.
The conditions of series [11]: human gut metagenome, 24 h, 2 µM. The source holds these as a separate data set.
The conditions of series [12]: human gut metagenome, 24 h, 2 µM. This is another data set of the same source.
The conditions of series [13]: human gut metagenome, 24 h, 2 µM. The source holds these as a separate data set.
The conditions of series [14]: human gut metagenome, 24 h, 2 µM. The source holds these as a separate data set.
The conditions of series [15]: human gut metagenome, 24 h, 2 µM. This is another data set of the same source.
The conditions of series [16]: human gut metagenome, 24 h, 2 µM. The source holds these as a separate data set.
The conditions of series [17]: human gut metagenome, 24 h, 2 µM. The source holds these as a separate data set.
The conditions of series [18]: human gut metagenome, 24 h, 2 µM. The source holds these as a separate data set.
The conditions of series [19]: human gut metagenome, 24 h, 2 µM. The source holds these as a separate data set.
For series [20] the following is noted: human gut metagenome, 24 h, 2 µM. The source holds these as a separate data set.
Note: call rule not given here.

Regarding `CC(=O)CCCCn1c(=O)c2c(ncn2C)n(C)c1=O` [PENTOXIFYLLINE], the “Bacterial Biotransformation” value in series [1] is reported as “Compound NOT metabolized”; in series [2] it was “Compound NOT metabolized”; in series [3] it was “Compound NOT metabolized”; in series [4], “Compound NOT metabolized”; in series [5], “Compound NOT metabolized”; in series [6], “Compound metabolized”. Besides, the “Bacterial Biotransformation” value is “Compound metabolized” in [7]; “Compound NOT metabolized” in series [8]; “Compound NOT metabolized” in series [9]; “Compound NOT metabolized” in series [10]; “Compound NOT metabolized” in [11]; “Compound NOT metabolized” in series [12]. Besides, the “Bacterial Biotransformation” value in series [13] is recorded as “Compound NOT metabolized”; in series [14], “Compound metabolized”; in series [15] it was “Compound NOT metabolized”; in series [16], “Compound metabolized”; in series [17], “Compound NOT metabolized”; in [18], “Compound metabolized”. In addition, the “Bacterial Biotransformation” value in [19] and in [20] was “Compound metabolized” each time.

Regarding `COC(=O)[C@H](c1ccccc1Cl)N1CCc2sccc2C1.O=S(=O)(O)O` [CLOPIDOGREL BISULFATE], the “Bacterial Biotransformation” value was “Compound NOT metabolized” in [1]; “Compound metabolized” in series [2]; “Compound NOT metabolized” in series [3]; “Compound metabolized” in series [4]; “Compound metabolized” in [5]; “Compound metabolized” in series [6]. Besides, the “Bacterial Biotransformation” value in [7], in series [8], in series [9], in [10], in series [11] and in series [12] was “Compound metabolized” each time. In addition, the “Bacterial Biotransformation” value in series [13], in series [14], in series [15], in series [16], in [17] and in [18] was “Compound metabolized” in each case. Moreover, the “Bacterial Biotransformation” value in series [19] and in series [20] was “Compound metabolized” throughout.

Consider `Cc1cc(C)cc(OCC2CNC(=O)O2)c1` (stereo not given) [METAXALONE], for which the “Bacterial Biotransformation” value is “Compound NOT metabolized” in [1]; “Compound metabolized” in series [2]; “Compound NOT metabolized” in series [3]; “Compound NOT metabolized” in series [4]; “Compound NOT metabolized” in series [5]; “Compound metabolized” in series [6]. The “Bacterial Biotransformation” value is recorded as “Compound metabolized” in series [7]; “Compound NOT metabolized” in series [8]; “Compound metabolized” in series [9]; “Compound metabolized” in series [10]; “Compound metabolized” in [11]; “Compound metabolized” in [12]. Also, the “Bacterial Biotransformation” value in [13], in series [14], in series [15], in [16], in series [17] and in series [18] was “Compound metabolized” in each case. In addition, the “Bacterial Biotransformation” value in series [19] and in series [20] was “Compound metabolized” throughout.

For the molecule `COc1ccc([C@@H]2Sc3ccccc3N(CCN(C)C)C(=O)[C@@H]2OC(C)=O)cc1` [DILTIAZEM], the “Bacterial Biotransformation” value in series [1] is “Compound NOT metabolized”; in [2] it was “Compound NOT metabolized”; in [3], “Compound NOT metabolized”; in series [4] it was “Compound metabolized”; in [5], “Compound metabolized”; in series [6], “Compound metabolized”. In addition, the “Bacterial Biotransformation” value in series [7], in series [8], in [9], in series [10], in [11] and in [12] was “Compound metabolized” each time. Moreover, the “Bacterial Biotransformation” value in series [13] is “Compound metabolized”; in series [14] it was “Compound metabolized”; in series [15], “Compound NOT metabolized”; in series [16], “Compound metabolized”; in series [17], “Compound metabolized”; in series [18], “Compound metabolized”. Moreover, the “Bacterial Biotransformation” value in series [19] and in [20] was “Compound metabolized” each time.

In the case of `CC(CCc1ccccc1)NCC(O)c1ccc(O)c(C(N)=O)c1` (stereo not given) [LABETALOL], the “Bacterial Biotransformation” value is “Compound NOT metabolized” in [1]; “Compound NOT metabolized” in series [2]; “Compound NOT metabolized” in series [3]; “Compound NOT metabolized” in series [4]; “Compound NOT metabolized” in series [5]; “Compound metabolized” in series [6]. Besides, the “Bacterial Biotransformation” value in [7] is reported as “Compound NOT metabolized”; in series [8] it was “Compound NOT metabolized”; in [9], “Compound NOT metabolized”; in series [10] it was “Compound NOT metabolized”; in [11], “Compound NOT metabolized”; in series [12], “Compound metabolized”. Also, the “Bacterial Biotransformation” value in [13] was “Compound NOT metabolized”; in series [14] it was “Compound NOT metabolized”; in [15], “Compound NOT metabolized”; in series [16], “Compound metabolized”; in series [17], “Compound NOT metabolized”; in series [18], “Compound NOT metabolized”. Also, the “Bacterial Biotransformation” value in series [19] and in series [20] was “Compound NOT metabolized” in each case.

In the case of `CC(C)(C)NCC(O)COc1cccc2c1CC(O)C(O)C2` (stereo not given) [NADOLOL], the “Bacterial Biotransformation” value in series [1] is reported as “Compound NOT metabolized”; in [2], “Compound NOT metabolized”; in [3] it was “Compound NOT metabolized”; in series [4] it was “Compound metabolized”; in [5], “Compound metabolized”; in [6], “Compound metabolized”. For the same molecule, the “Bacterial Biotransformation” value in series [7] was “Compound metabolized”; in series [8], “Compound NOT metabolized”; in [9], “Compound metabolized”; in series [10], “Compound metabolized”; in series [11], “Compound NOT metabolized”; in series [12], “Compound NOT metabolized”. For the same molecule, the “Bacterial Biotransformation” value is listed as “Compound metabolized” in series [13]; “Compound metabolized” in series [14]; “Compound NOT metabolized” in series [15]; “Compound metabolized” in series [16]; “Compound NOT metabolized” in [17]; “Compound metabolized” in series [18]. Moreover, the “Bacterial Biotransformation” value in series [19] and in series [20] was “Compound metabolized” each time.
